This note sets out measurements from patent US6011041A, “Use of anhydrovinblastine” (priority 1996, dated 2000).

The test system of data set [1] is H460 human non-small cell lung carcinoma. The experiment in a line: MTT dose response cytotoxicity, H460 (Table 1). The data set is classed as cell-based. To be noted: read-out: DRUG IC50. On the procedure: (§1) Cytotoxicity experiments on AHVB were performed as direct comparisons with vincristine and navelbine in order to assess its inherent antineoplastic profile against a variety of tumour cell types relative to other relevant vinca alkaloids. The cytotoxicity of AHVB was investigated in vitro against a panel of tumour cell lines of varying lineage in order to determine the specificity of its antitumour activity with respect to cell type. The tumour lines studied were P388 lymphocytic leukemia (a murine lymphocytic leukemia), Noble (Nb) rat U17 lymphoma, MCF7 human breast carcinoma, H460 human non-small cell lung carcinoma, K562 human erythrokeukemia and LS180 human colon carcinoma based on established NCI in vitro new anticancer drug cytotoxicity screening protocols.
(§2) Standard dose response cytotoxicity assays (R. Mosmass, J. Immunol. Meth., 65:55-64, 1983) were utilized to determine the IC50 (drug concentration required to induce 50% inhibition of tumour cell growth) for vincristine, navelbine and AHVB. The indicated cell lines were obtained from either the ATCC or NCI tumor repository and were cultured in tissue culture media by standard techniques well known to those skilled in the art, prior to dilution to a defined cell concentration required for the studies in 96 well plates.
(§3) A wide range of drug concentrations were exposed to tumour cells growing at log phase in 96-well microtitre plates. Cell concentrations depended on the cell line as well as the length of time to be cultured. Typically, P388 cells were plated at a concentration of 30,000, 2,000 and 750 cells per well for studies lasting 1, 3 and 7 days, respectively MCF7 cells were plated at a concentration of 7,000 and 1,500 cells per well for studies lasting 3 and 7 days, respectively. H460 cells were plated at a concentration of 2,500 and 1,000 cells per well for studies lasting 3 and 7 days, respectively. K562 cells were plated at a concentration of 1,500 and 10,000 cells per well for studies lasting 1 and 3 days, respectively. LS180 cells were plated at a concentration of 5,000 and […] cells per well for studies lasting 3 and 7 days, respectively. After plating all cell lines were incubated (CO2 incubator at 37° C., 5% CO2) for 24 hours prior to addition of the cytotoxic agent (See Table 1). Subsequently the plates were incubated for the indicated time period. At specified times, cells were washed and subsequently exposed to the dye inclusion marker MTT (3-(4,5-dimethylthiazol-2-yl)-2,5diphenyl tetrazolium), which accumulated into viable cells. MTT was added to the cells at a final concentration of 50 μg per well. After a 4 hour incubation, the cells were washed free of media and unreacted MTT, prior to addition of DMSO which was required to solubilize the insoluble formazan precipitate that formed in viable cells. After the sample was mixed through repeated pipetting, the colored product was measured using a plate reader operating at 570 nm. The absorbance values obtained for cells cultured in the absence of drug was assumed to represent 100% viability. Experiments were repeated to substantiate any differences noted between […] and other vinca alkaloids.

Data set [2] concerns LS180 human colon carcinoma. The experiment in a line: MTT dose response cytotoxicity, LS180 (Table 1). The data set is classed as cell-based. Particulars: read-out: DRUG IC50. How it is done:
as §1, §2, §3

The next data set has as its system Nb2-U17 lymphoma. The experiment in a line: Nb2-U17 lymphoma transplant efficacy in Nb rats (FIGS. 2-3). The data set is classed as in vivo, rat. To be noted: for time to regression of tumours to essential non-palpability: single i.p. subacutely toxic dose (AHVB 3.0, navelbine 2.0, vincristine 0.7 mg/kg); for recurrence of tumours after day 10 / time after which most of the lost animal weight was regained: single i.p. subacutely toxic dose, Nb2-U17 rats; for anti-tumour effect at 50% of maximum tolerated dose, relative potency: half subacutely toxic dose, single i.p. (AHVB 1.5, navelbine 1.0, vincristine 0.35 mg/kg). The source says: The U17 cell line was originally derived from a transplantable malignant lymphoma that arose spontaneously in male Noble rats (British Columbia Cancer Research center Joint Animal Breeding Facility with parents obtained from the National Institutes of Health, Bethesda, Md.). The cell line is prolactin dependent and can readily be cultured in vitro. U17 derived solid tumours are generated by subcutaneous injection (via the trocar method) of a small (2 mm^2) piece of tumour tissue obtained from male Noble rat. Tumour tissue used for the implants arose two weeks after injection of 5×10^6 U17 cells (from culture) subcutaneously in the nape of the neck. For assessing the anti-tumour activity of AHVB, tumour bearing animals (2-4 gm tumours) were given a single treatment of drug and tumour size was measured as a function of time following treatment. The anti-tumour activity was assessed at a series of different doses in order to determine the maximum therapeutic dose of AHVB. Comparative studies between vincristine, vinblastine and AHVB were performed.
Cultures of the non-metastatic, pre-T Nb2 lymphoma line originally developed at The University of British Columbia and designated Nb2-U17 (Anticancer Research 14:2485-2492, 1994), and are available from the British Columbia Cancer Research Center. Cells from exponentially growing Nb2-U17 suspension cultures were injected subcutaneously into methoxyflurane-anesthetized, mature male Nb rats (5 rats; 310-380 grams; 5×10^6 cells/rat in 1 ml of culture medium) at the nape of the neck using a 1.5" 20-gauge needle. At about 3 weeks, when the tumours reached a size of 4-7 cm (length+width), the animals were sacrificed and the tumours used for transplantation as described below.
A tumour from a rat was excised, minced and the tumour tissue was put into trocars (2", 13 gauge). The tissue samples were implanted subcutaneously in the nape of the neck of methoxyflurane-anesthetized male Nb rats (248-404 grams; 1 trocar per rat). This procedure was repeated 5 times to get a total of 60 tumour-bearing rats to be used for efficacy studies of the 3 drugs.
When the tumours were well established (1.5-2 weeks later), three separate groups of 20 rats, as closely matched as possible in terms of both tumour weight and rat weight, were selected for administration of the three test articles (i.e. one group for each test article).
Vincristine was administered to rats weighing 281-384 grams, bearing tumours weighing 6.3-16.3 grams. Navelbine was administered to rats weighing 274-389 grams bearing tumours weighing 9.1-23.3 grams. AHVB was administered to rats weighing 303-400 grams, bearing tumours weighing 7.9-25.9 grams. Tumour weights were estimated using the hemi-ellipsoid model (weight in grams=[…] in cm).
The oncolytic effects of each of the three drugs were assessed at a subacutely toxic dose, determined for each drug in preliminary studies using non-tumour-bearing, mature male Nb rats, i.e. 3.0, 2.0 and 0.7 mg/kg for […], navelbine and vincristine, respectively as illustrated in FIG. 2. In addition, each drug was assessed at 50% and 25% of its subacutely toxic dose. Five tumour-bearing rats were used to evaluate the effect at each dose level. The drugs were administered intraperitoneally as a single bolus in a volume of 0.19-0.31 ml, as indicated by the weight of the animals. To this end, drug preparations were diluted to appropriate concentrations using sparged saline adjusted with acetic acid to pH 4.2. For each drug, a group of 5 control rats received an intraperitoneal injection of the equivalent amount of saline (pH 4.2). The tumour-bearing rats were organized in the following groups:
Following administration of the test articles, the animals; weight and tumour size (using calipers) were determined daily until the tumour reached an estimated weight of 35 grams, or started to ulcerate, at which times the animals were sacrificed (by carbondioxide inhalation) and subjected to necropsy. […]

[3] abbreviates: NCI-H460, 72 h, H460, exposure time 3 days.
Where [4] appears, read: NCI-H460, 168 h, H460, exposure time 7 days.
The mark [5] stands for this setting: 72 h, LS180, exposure time 3 days.
The mark [6] stands for this setting: 168 h, LS180, exposure time 7 days.

Structures can show the parent of a compound that is named as a salt. Where two headings read alike, the source gives them in different places.

Take `CC[C@]1(O)C[C@H]2CN(CCc3c([nH]c4ccccc34)[C@@](C(=O)OC)(c3cc4c(cc3OC)N(C=O)[C@H]3[C@@](O)(C(=O)OC)[C@H](OC(C)=O)[C@]5(CC)C=CCN6CC[C@]43[C@@H]65)C2)C1` [vincristine, Sulfate of 22-oxovincaleukoblastine]: the IC50 is 3.5 nM in data set [1] (setting [3]), 2.5 nM in data set [1] (setting [4]), > 50 nM in data set [2] (setting [5]) and 1.5 nM in data set [2] (setting [6]). In addition, the “time to regression of tumours to essential non-palpability” value (shortened to “time … to essential non-palpability”) in the data set on Nb2-U17 lymphoma is given as ≤ 5 days. For the same compound, the “recurrence of tumours after day 10” value in the data set with Nb2-U17 lymphoma is “recurrence of tumours was not observed”. Further, the “time after which most of the lost animal weight was regained” value (shortened to “time after which most”) with Nb2-U17 lymphoma is recorded as “about 17 days”.
Consider `CCC1=CC2CN(CCc3c([nH]c4ccccc34)C(C(=O)OC)(c3cc4c(cc3OC)N(C)C3C(O)(C(=O)OC)C(OC(C)=O)C5(CC)C=CCN6CCC43C65)C2)C1` (centres unmarked) [AHVB, 3',4'-anhydrovinblastine], for which, in data set [1] (NCI-H460, 72 h), the IC50 amounted to 10 nM. Besides, in data set [1] (NCI-H460, 168 h), the IC50 came to 5 nM. The IC50 in data set [2] (LS180, 72 h) was > 50 nM. In data set [2] (LS180, 168 h), the IC50 amounted to 17.5 nM. In the data set on Nb2-U17 lymphoma, the “anti-tumour effect at 50% of maximum tolerated dose, relative potency” value is on record as “less potent than vincristine”; the “time … to essential non-palpability” value is ≤ 5 days; the “recurrence of tumours after day 10” value is on record as “occurred to about the same extent”; the “time after which most” value was “about 17 days”.
Consider `CCC1=C[C@@H]2CN(C1)Cc1c([nH]c3ccccc13)[C@@](C(=O)OC)(c1cc3c(cc1OC)N(C)[C@H]1[C@@](O)(C(=O)OC)[C@H](OC(C)=O)[C@]4(CC)C=CCN5CC[C@]31[C@@H]54)C2` [navelbine, 3',4'-didehydro-4'-deoxy-C'-norvincaleukoblastine-di-L-tartrate], for which, in data set [1] (setting [3]), the IC50 was found to be 0.3 nM. Also, the half-maximal inhibitory concentration (IC50) in data set [1] (setting [4]) is > 0.5 nM. Also, the concentration for half-maximal inhibition (IC50) in data set [2] (setting [5]) is > 50 nM. The IC50 in data set [2] (setting [6]) was determined as 0.5 nM. Besides, in the data set with Nb2-U17 lymphoma, the “anti-tumour effect at 50% of maximum tolerated dose, relative potency” value is given as “less potent than AHVB”; the “time … to essential non-palpability” value was ≤ 5 days; the “recurrence of tumours after day 10” value was “occurred to about the same extent”; the “time after which most” value was “about 17 days”.
